Test results reported in ChEMBL document CHEMBL1139580, “Pyrrolo[1,2-a][1,4]benzodiazepine: a novel class of non-azole anti-dermatophyte anti-fungal agents” (Bioorg Med Chem Lett, 2005).
≈ marks a conversion by molar mass, not a printed value.

Key:
[1] = Minimum inhibitory concentration against Trichophyton mentagrophytes B70554 by microdilution method; type: functional; conditions: Trichophyton benhamiae
[2] = Minimum inhibitory concentration against Microsporum canis B68128 by microdilution method; type: functional
[3] = Minimum inhibitory concentration against Trichophyton rubrum B68183 by microdilution method; type: functional
[4] = Minimum inhibitory concentration against Sporothrix schenckii B64284 by microdilution method; type: functional
[5] = test system: Candida parapsilosis; assay: Minimum inhibitory concentration against Candida B66126 parapsilosis by microdilution method; type: functional; conditions: Lodderomyces parapsilosis
[6] = test system: Aspergillus fumigatus; assay: Minimum inhibitory concentration against Aspergillus fumigatus B42928 by microdilution method; type: functional
[7] = test system: Cryptococcus neoformans; assay: Minimum inhibitory concentration against Cryptococcus neoformans B66663 by microdilution method; type: functional
[8] = Bioavailability in plasma of Microsporum canis infected guinea pig after […] administration of 2 mg/kg dose; type: ADME, organism-based, Cavia porcellus; conditions: read-out: Activity

CCc1ccc(C2NCc3c(F)cccc3-n3cccc32)cc1 (centres undefined)
MIC [1]: 1 µM (≈ 0.306 µg/mL) | MIC [2]: 3.2 µM (≈ 0.98 µg/mL) | MIC [3]: 0.32 µM (≈ 0.098 µg/mL) | MIC [4]: 100 µM (≈ 30.6 µg/mL) | MIC [5]: 10 µM (≈ 3.06 µg/mL) | MIC [6]: 10 µM (≈ 3.06 µg/mL) | MIC [7]: 100 µM (≈ 30.6 µg/mL)

CCc1ccc(C2NCc3c(Cl)cccc3-n3cccc32)cc1 (centres undefined)
MIC [1]: 0.1 µM (≈ 0.0323 µg/mL) | MIC [2]: 0.32 µM (≈ 0.103 µg/mL) | MIC [3]: 0.03 µM (≈ 0.00969 µg/mL) | MIC [4]: 100 µM (≈ 32.3 µg/mL) | MIC [5]: 1 µM (≈ 0.323 µg/mL) | MIC [6]: 3.2 µM (≈ 1.03 µg/mL) | MIC [7]: 100 µM (≈ 32.3 µg/mL)

CCc1ccc(C2=NCc3ccc(Cl)cc3-n3cccc32)cc1
MIC [1]: 0.1 µM (≈ 0.0321 µg/mL) | MIC [2]: 0.32 µM (≈ 0.103 µg/mL) | MIC [3]: 0.065 µM (≈ 0.0209 µg/mL) | MIC [4]: 6.6 µM (≈ 2.12 µg/mL) | MIC [5]: 1 µM (≈ 0.321 µg/mL) | MIC [6]: 0.32 µM (≈ 0.103 µg/mL) | MIC [7]: 1 µM (≈ 0.321 µg/mL)

CCc1ccc([C@H]2NCc3c(Cl)cccc3-n3cccc32)cc1
MIC [1]: 0.01 µM (≈ 0.00323 µg/mL) | bioavailability [8]: < 5% | MIC [2]: 0.32 µM (≈ 0.103 µg/mL) | MIC [3]: 0.03 µM (≈ 0.00969 µg/mL) | MIC [4]: 100 µM (≈ 32.3 µg/mL) | MIC [5]: 0.32 µM (≈ 0.103 µg/mL) | MIC [6]: 1 µM (≈ 0.323 µg/mL) | MIC [7]: 100 µM (≈ 32.3 µg/mL)

CCc1ccc(C2NCc3c(C)cccc3-n3cccc32)cc1 (centres undefined)
MIC [1]: 1 µM (≈ 0.302 µg/mL) | MIC [2]: 2.1 µM (≈ 0.635 µg/mL) | MIC [3]: 0.21 µM (≈ 0.0635 µg/mL) | MIC [4]: 100 µM (≈ 30.2 µg/mL) | MIC [5]: 55 µM (≈ 16.6 µg/mL) | MIC [6]: 100 µM (≈ 30.2 µg/mL) | MIC [7]: 100 µM (≈ 30.2 µg/mL)

Cc1ccc(C2NCc3c(Cl)cccc3-n3cccc32)cc1 (centres undefined)
MIC [1]: 2.1 µM (≈ 0.649 µg/mL) | MIC [2]: 2.1 µM (≈ 0.649 µg/mL) | MIC [3]: 0.1 µM (≈ 0.0309 µg/mL) | MIC [4]: 100 µM (≈ 30.9 µg/mL) | MIC [5]: 100 µM (≈ 30.9 µg/mL) | MIC [6]: 100 µM (≈ 30.9 µg/mL) | MIC [7]: 100 µM (≈ 30.9 µg/mL)

CCc1ccc(C2c3cccn3-c3cccc(Cl)c3CN2C)cc1 (centres undefined)
MIC [1]: 55 µM (≈ 18.5 µg/mL) | MIC [2]: 100 µM (≈ 33.7 µg/mL) | MIC [3]: 51.6 µM (≈ 17.4 µg/mL) | MIC [4]: 100 µM (≈ 33.7 µg/mL) | MIC [5]: 100 µM (≈ 33.7 µg/mL) | MIC [6]: 100 µM (≈ 33.7 µg/mL) | MIC [7]: 100 µM (≈ 33.7 µg/mL)

Clc1cccc2c1CNC(c1ccccc1)c1cccn1-2 (centres undefined)
MIC [1]: 100 µM (≈ 29.5 µg/mL) | MIC [2]: 100 µM (≈ 29.5 µg/mL) | MIC [3]: 0.32 µM (≈ 0.0943 µg/mL) | MIC [4]: 100 µM (≈ 29.5 µg/mL) | MIC [5]: 100 µM (≈ 29.5 µg/mL) | MIC [6]: 100 µM (≈ 29.5 µg/mL) | MIC [7]: 100 µM (≈ 29.5 µg/mL)

CCc1ccc(C2NCc3cccc(Cl)c3-n3cccc32)cc1 (centres undefined)
MIC [1]: 3.2 µM (≈ 1.03 µg/mL) | MIC [2]: 3.2 µM (≈ 1.03 µg/mL) | MIC [3]: 1 µM (≈ 0.323 µg/mL) | MIC [4]: 100 µM (≈ 32.3 µg/mL) | MIC [5]: 100 µM (≈ 32.3 µg/mL) | MIC [6]: 100 µM (≈ 32.3 µg/mL) | MIC [7]: 100 µM (≈ 32.3 µg/mL)

CCc1ccccc1C1NCc2c(Cl)cccc2-n2cccc21 (centres undefined)
MIC [1]: 100 µM (≈ 32.3 µg/mL) | MIC [2]: 100 µM (≈ 32.3 µg/mL) | MIC [3]: 10 µM (≈ 3.23 µg/mL) | MIC [4]: 100 µM (≈ 32.3 µg/mL) | MIC [5]: 100 µM (≈ 32.3 µg/mL) | MIC [6]: 100 µM (≈ 32.3 µg/mL) | MIC [7]: 100 µM (≈ 32.3 µg/mL)

CC(C)(C)c1ccc(C2NCc3c(Cl)cccc3-n3cccc32)cc1 (centres undefined)
MIC [1]: 1 µM (≈ 0.351 µg/mL) | MIC [2]: 0.66 µM (≈ 0.232 µg/mL) | MIC [3]: 1 µM (≈ 0.351 µg/mL) | MIC [4]: 55 µM (≈ 19.3 µg/mL) | MIC [5]: 55 µM (≈ 19.3 µg/mL) | MIC [6]: 100 µM (≈ 35.1 µg/mL) | MIC [7]: 100 µM (≈ 35.1 µg/mL)

CCc1ccc(C2NCc3c(OC)cccc3-n3cccc32)cc1 (centres undefined)
MIC [1]: 10 µM (≈ 3.18 µg/mL) | MIC [2]: 10 µM (≈ 3.18 µg/mL) | MIC [3]: 3.2 µM (≈ 1.02 µg/mL) | MIC [4]: 100 µM (≈ 31.8 µg/mL) | MIC [5]: 100 µM (≈ 31.8 µg/mL) | MIC [6]: 100 µM (≈ 31.8 µg/mL) | MIC [7]: 100 µM (≈ 31.8 µg/mL)

CCc1ccc(C2=NCc3ccccc3-n3cccc32)cc1
MIC [1]: 0.32 µM (≈ 0.0916 µg/mL) | MIC [2]: 0.32 µM (≈ 0.0916 µg/mL) | MIC [3]: 0.065 µM (≈ 0.0186 µg/mL) | MIC [4]: 100 µM (≈ 28.6 µg/mL) | MIC [5]: 0.32 µM (≈ 0.0916 µg/mL) | MIC [6]: 1 µM (≈ 0.286 µg/mL) | MIC [7]: 100 µM (≈ 28.6 µg/mL)

CCc1ccc(C2NCc3ccc(Cl)cc3-n3cccc32)cc1 (centres undefined)
MIC [1]: 1 µM (≈ 0.323 µg/mL) | MIC [2]: 1 µM (≈ 0.323 µg/mL) | MIC [3]: 0.1 µM (≈ 0.0323 µg/mL) | MIC [4]: 100 µM (≈ 32.3 µg/mL) | MIC [5]: 100 µM (≈ 32.3 µg/mL) | MIC [6]: 100 µM (≈ 32.3 µg/mL) | MIC [7]: 100 µM (≈ 32.3 µg/mL)

CCc1ccc([C@@H]2NCc3c(Cl)cccc3-n3cccc32)cc1
MIC [1]: 1 µM (≈ 0.323 µg/mL) | MIC [2]: 0.32 µM (≈ 0.103 µg/mL) | MIC [3]: 0.32 µM (≈ 0.103 µg/mL) | MIC [4]: 100 µM (≈ 32.3 µg/mL) | MIC [5]: 100 µM (≈ 32.3 µg/mL) | MIC [6]: 55 µM (≈ 17.8 µg/mL) | MIC [7]: 100 µM (≈ 32.3 µg/mL)

Clc1cccc2c1CNC(c1ccc(Br)cc1)c1cccn1-2 (centres undefined)
MIC [1]: 0.21 µM (≈ 0.0785 µg/mL) | MIC [2]: 0.32 µM (≈ 0.12 µg/mL) | MIC [3]: 0.21 µM (≈ 0.0785 µg/mL) | MIC [4]: 100 µM (≈ 37.4 µg/mL) | MIC [5]: 100 µM (≈ 37.4 µg/mL) | MIC [6]: 10 µM (≈ 3.74 µg/mL) | MIC [7]: 100 µM (≈ 37.4 µg/mL)

CCc1ccc(C2NCc3c(SC)cccc3-n3cccc32)cc1 (centres undefined)
MIC [1]: 3.2 µM (≈ 1.07 µg/mL) | MIC [2]: 3.2 µM (≈ 1.07 µg/mL) | MIC [3]: 0.32 µM (≈ 0.107 µg/mL) | MIC [4]: 100 µM (≈ 33.4 µg/mL) | MIC [5]: 100 µM (≈ 33.4 µg/mL) | MIC [6]: 100 µM (≈ 33.4 µg/mL) | MIC [7]: 100 µM (≈ 33.4 µg/mL)

CCCc1ccc(C2NCc3c(Cl)cccc3-n3cccc32)cc1 (centres undefined)
MIC [1]: 0.66 µM (≈ 0.222 µg/mL) | MIC [2]: 0.66 µM (≈ 0.222 µg/mL) | MIC [3]: 0.32 µM (≈ 0.108 µg/mL) | MIC [4]: 100 µM (≈ 33.7 µg/mL) | MIC [5]: 6.6 µM (≈ 2.22 µg/mL) | MIC [6]: 100 µM (≈ 33.7 µg/mL) | MIC [7]: 100 µM (≈ 33.7 µg/mL)

CCc1ccc(C2NCc3cc(Cl)ccc3-n3cccc32)cc1 (centres undefined)
MIC [1]: 51.6 µM (≈ 16.7 µg/mL) | MIC [2]: 100 µM (≈ 32.3 µg/mL) | MIC [3]: 3.2 µM (≈ 1.03 µg/mL) | MIC [4]: 100 | MIC [5]: 100 µM (≈ 32.3 µg/mL) | MIC [6]: 100 µM (≈ 32.3 µg/mL) | MIC [7]: 100 µM (≈ 32.3 µg/mL)

CCc1ccc(C2NCc3ccccc3-n3cccc32)cc1 (centres undefined)
MIC [1]: 3.2 µM (≈ 0.923 µg/mL) | MIC [2]: 100 µM (≈ 28.8 µg/mL) | MIC [3]: 1 µM (≈ 0.288 µg/mL) | MIC [4]: 100 µM (≈ 28.8 µg/mL) | MIC [5]: 100 µM (≈ 28.8 µg/mL) | MIC [6]: 1 µM (≈ 0.288 µg/mL) | MIC [7]: 100 µM (≈ 28.8 µg/mL)

CCc1ccc(C2=NCc3c(Cl)cccc3-n3cccc32)cc1
MIC [1]: 0.03 µM (≈ 0.00962 µg/mL) | MIC [2]: 0.03 µM (≈ 0.00962 µg/mL) | MIC [3]: 0.01 µM (≈ 0.00321 µg/mL) | MIC [4]: 100 µM (≈ 32.1 µg/mL) | MIC [5]: 0.32 µM (≈ 0.103 µg/mL) | MIC [6]: 0.32 µM (≈ 0.103 µg/mL) | MIC [7]: 100 µM (≈ 32.1 µg/mL)

CCc1cccc(C2NCc3c(Cl)cccc3-n3cccc32)c1 (centres undefined)
MIC [1]: 1 µM (≈ 0.323 µg/mL) | MIC [2]: 1 µM (≈ 0.323 µg/mL) | MIC [3]: 0.1 µM (≈ 0.0323 µg/mL) | MIC [4]: 100 µM (≈ 32.3 µg/mL) | MIC [5]: 10 µM (≈ 3.23 µg/mL) | MIC [6]: 10 µM (≈ 3.23 µg/mL) | MIC [7]: 100 µM (≈ 32.3 µg/mL)

Clc1ccc(C2NCc3c(Cl)cccc3-n3cccc32)cc1 (centres undefined)
MIC [1]: 0.66 µM (≈ 0.217 µg/mL) | MIC [2]: 0.66 µM (≈ 0.217 µg/mL) | MIC [3]: 0.32 µM (≈ 0.105 µg/mL) | MIC [4]: 100 µM (≈ 32.9 µg/mL) | MIC [5]: 100 µM (≈ 32.9 µg/mL) | MIC [6]: 51.6 µM (≈ 17 µg/mL) | MIC [7]: 100 µM (≈ 32.9 µg/mL)

CN(C/C=C/C#CC(C)(C)C)Cc1cccc2ccccc12 [TERBINAFINE]
MIC [1]: 0.01 µM (≈ 0.00291 µg/mL) | MIC [2]: 0.03 µM (≈ 0.00874 µg/mL) | MIC [3]: 0.003 µM (≈ 0.000874 µg/mL) | MIC [4]: 0.32 µM (≈ 0.0933 µg/mL) | MIC [5]: 0.32 µM (≈ 0.0933 µg/mL) | MIC [6]: 0.32 µM (≈ 0.0933 µg/mL) | MIC [7]: 1 µM (≈ 0.291 µg/mL)
